From US20200270232A1, “INHIBITORS OF INTEGRATED STRESS RESPONSE PATHWAY” (Praxis Biotech LLC, priority 2019, published 2020) come the findings set out here.

One test deals with ATF4. Kind of test: ATF4 expression inhibition assay (ATF4 luciferase reporter). As to conditions: Homo sapiens, HEK-293T; HEK293T cells carrying the ATF4 luciferase reporter, 100 nM thapsigargin (Tg), 3 hours; read-out: ATF4 inhbition IC50. Format: cell-based. On the procedure:
The ATF4 reporter was prepared by fusing the human full length 5′UTR of ATF4 (NCBI Accession No. BC022088.2) upstream of the firefly luciferase coding sequence lacking the initiator methionine. The fused sequence was cloned into pLenti-EF1a-C-Myc-DDK-IRES-Puro cloning vector (Origen # PS 100085) using standard methods. Virus production was carried out by using Lenti-X™ Packaging Single Shots Protocol (Clonetech #631276). Viral particles were used to transduce HEK293T cells (ATCC # CRL-3216, ATCC Manassas, Va.), which were subsequently selected with puromycin to generate stable cell line. Cells were maintained at 37° C. and 5% CO2 in DMEM-F12 (Hyclone # SH30023.02) supplemented with 10% heat-inactivated fetal bovine serum (Gibco #16000-044), 2 mM L-glutamine (Gibco #25030-081), 100 U/ml penicillin, and 100 μg/ml streptomycin (Gibco #15140-122).
HEK293T cells carrying the ATF4 luciferase reporter were plated on 96-well plates (Nunc) at 10,000 cells per well. Cells were treated two days after seeding with 100 nM thapsigargin (Tg) (Sigma-Aldrich # T9033) in the presence of different concentrations of selected compounds ranging from 1 nM to 10 μM. Cells without treatment or cells treated with Tg alone were used as controls. Assay plates containing cells were incubated for 3 hours at 37° C.
Luciferase reactions were performed using Luciferase Assay System (Promega # E1501) as specified by the manufacturer. Luminescence was read with an integration time of 1 s and a gain of 110 using a Cytation-5 multi-mode microplate reader (BioTek). Relative luminescence units were normalized to Tg treatment (0% inhibition) and untreated cells (100% inhibition) and the percentage of ATF4 inhibition was calculated.
Accordingly, inhibition of ATF4 expression as a result of the test compound indicates suppression of the ISR pathway.
(In general: Reporter assays use an easily measured gene product as a stand-in for the process of interest.)

Test [1] deals with Chinese hamster ovary (CHO) cells. Kind of test: Protein translation assay (puromycin labelling, western blot). Format: cell-based. Particulars: 2 hours, media alone = 100%; for activity at 1 µM: Cricetulus griseus, unstressed CHO cells (without Tg), 1 μM test compound, read-out: % Protein synthesis relative to untreated (1 μM test compound); for % Recovery of protein synthesis (1 μM test compound): stressed CHO cells, 300 nM Tg, Tg alone = 0%. As for the experimental part: Chinese hamster ovary (CHO) cells were maintained at 37° C. and 5% C02 in Dulbecco's Modified Eagle's Media (DMEM) supplemented with 10% fetal bovine serum, 2 mM L-glutamine, 100 U/ml penicillin, and 100 μg/ml streptomycin. After reaching 80% of confluence, cells were detached and seeded on 6 well plates in complete media, allowed to recover overnight and treated for 2 hours with 1 μM of the test compound (to assess protein synthesis levels in unstressed condition), or for 2 hours with 300 nM Tg in the presence of 1 μM of the test compound (to assess the recovery of protein synthesis in a stressed condition). Cells with Tg alone were used as controls.
After the 2 hours treatments, media were replaced by adding 10 μg/ml puromycin (Sigma Aldrich # P8833) in complete media for 30 min. Media were removed and cells were lysed with SDS-PAGE lysis buffer. Lysates were transferred to 1.5 ml tubes and sonicated for 3 min and total protein amount were quantified using BCA Protein Assay Kit (Pierce). Equal amount of protein (30 μg) was loaded on SDS-PAGE gels. Proteins were transferred onto 0.2 μm PVDF membranes (BioRad) and probed with primary antibodies diluted in Tris-buffered saline supplemented with 0.1% Tween 20 (Merck # S6996184 505) and 3% bovine serum albumin (Rockland # BSA-50).
Puromycin (12D10) (Merck # MABE343) and β-actin (Sigma Aldrich # A5441) antibodies were used as primary antibody. A HRP-conjugated secondary antibody (Rockland) was employed to detect immune-reactive bands using enhanced chemiluminescence (ECL Western Blotting Substrate, Pierce). Quantification of protein bands was done by densitometry using ImageJ software.
Percent increase of protein synthesis in unstressed cells (without Tg treatment) in the presence of media alone or certain test compounds is shown in Table 3. The percentage levels were normalized to the media alone condition, which correspond to 100% protein synthesis.
Percent recovery of protein synthesis in stressed cells (with Tg treatment) due to the test compounds at 1 μM is also shown in Table 3. The levels were normalized to the media alone and Tg alone conditions, which correspond to 100% and 0% respectively.
On the technique in general: Immunoblotting shows a protein as a band on a membrane.

Some results are limits rather than exact numbers.

For the molecule `O=C(COc1ccc(Cl)c(F)c1)NCC1CCC(NC(=O)COc2ccc(Cl)c(F)c2)C1` (stereo not drawn) [Compound 84, 2-(4-chloro-3-fluorophenoxy)-N-((3-(2-(4-chloro-3-fluorophenoxy)acetamido)cyclopentyl)methyl)acetamide], in the test on ATF4, the IC50 (usually the concentration at which inhibition is half-maximal) was over 100 nM. Also, the activity at 1 µM in test [1] is 80.3%.

As for `O=C(COc1ccc(Cl)c(F)c1)NC1CCN(CC(O)COc2ccc(Cl)c(F)c2)C1` (stereo not drawn) [Compound 99, 2-(4-chloro-3-fluorophenoxy)-N-(1-(3-(4-chloro-3-fluorophenoxy)-2-hydroxypropyl)pyrrolidin-3-yl)acetamide], the IC50 with ATF4 was over 100 nM. Moreover, in test [1], the activity at 1 µM turned out to be 67.7% and the “% Recovery of protein synthesis (1 μM test compound)” value (from here on “% Recovery of protein synthesis”) worked out at 0.00%.

As for `O=C(COc1ccc(Cl)c(F)c1)NC1CCC(CNC(=O)c2ccc3cc(Cl)ccc3n2)C1` (stereo not drawn) [Compound 87, 6-chloro-N-((3-(2-(4-chloro-3-fluorophenoxy)acetamido)cyclopentyl)methyl)quinoline-2-carboxamide], the IC50 in the test with ATF4 is under 1000 nM. Further, in test [1], the activity at 1 µM was determined as 83.9%.

Turning to `O=C(NCC1CCN(CC(O)COc2ccc(Cl)c(F)c2)C1)c1cc2cc(Cl)ccc2o1` (stereo not drawn) [Compound 8, 5-chloro-N-((1-(3-(4-chloro-3-fluorophenoxy)-2-hydroxypropyl)pyrrolidin-3-yl)methyl)benzofuran-2-carboxamide], the IC50 with ATF4 is over 1000 nM. In test [1], the activity at 1 µM was 107% and the “% Recovery of protein synthesis” value was 31.57%.

For `O=C(COc1ccc(Cl)c(F)c1)NCC1CCN(NC(=O)COc2ccc(Cl)c(F)c2)C1` (stereo not drawn) [Compound 92, 2-(4-chloro-3-fluorophenoxy)-N-(3-((2-(4-chloro-3-fluorophenoxy)acetamido)methyl)pyrrolidin-1-yl)acetamide], the IC50 with ATF4 came to 14.1 nM. Also, in test [1], the activity at 1 µM is 93.6% and the “% Recovery of protein synthesis” value was 45.8%.

For the molecule `O=C(COc1ccc(Cl)c(F)c1)N[C@@H]1CC[C@H](NC(=O)c2ccc3cc(Cl)ccc3n2)C1` [Compound 19, 6-chloro-N-((1S,3R)-3-(2-(4-chloro-3-fluorophenoxy)acetamido)cyclopentyl)quinoline-2-carboxamide], in the test on ATF4, the half-inhibitory concentration (IC50) was over 100 nM. In addition, in test [1], the activity at 1 µM was 76.1%.

In the case of `O=C(NCC1CCN(C[C@@H](O)COc2ccc(Cl)c(F)c2)C1)c1ccc2cc(Cl)ccc2n1` (stereo partly drawn) [Compound 80, 6-chloro-N-((1-((R)-3-(4-chloro-3-fluorophenoxy)-2-hydroxypropyl)pyrrolidin-3-yl)methyl)quinoline-2-carboxamide], the IC50 in the test on ATF4 is over 100 nM. In test [1], the activity at 1 µM came to 153% and the “% Recovery of protein synthesis” value was 23.9%.

With `O=C(NCC1CCC(NCC(O)COc2ccc(Cl)c(F)c2)C1)c1ccc2cc(Cl)ccc2n1` (stereo not drawn) [Compound 34, 6-chloro-N-((3-((3-(4-chloro-3-fluorophenoxy)-2-hydroxypropyl)amino)cyclopentyl)methyl)quinoline-2-carboxamide], in the test with ATF4, the IC50 was over 1000 nM. For the same molecule, in test [1], the activity at 1 µM is 166% and the “% Recovery of protein synthesis” value stood at 122.6%.
